CCCCOC(=O)c1ccc(O)cc1
solubility (mole fraction)
Settings	281.05 K	291.05 K	301.05 K	311.05 K	321.05 K
in acetonitrile	0.275	0.449	0.61	0.753	0.857
in ethyl acetate	0.424	0.501	0.591	0.688	0.781

Reference: BigSolDB 2.1
